This note sets out measurements from ChEMBL document CHEMBL3297666, “Antibacterial inhibitors of Gram-positive thymidylate kinase: structure-activity relationships and chiral preference of a new hydrophobic binding region” (J Med Chem, 2014).

Calls of active or inactive are those of the source.

Data set [1] is described as follows: Fraction unbound in mouse plasma at 10 uM after 5 hrs by rapid equilibrium dialysis method. Type of data set: ADME, cell-free. Background: Equilibrium dialysis compares concentrations on both sides of a semipermeable membrane.
In another data set the test system is Pseudomonas aeruginosa. Briefly: Antibacterial activity against Pseudomonas aeruginosa ARC 545 assessed as growth inhibition by broth microdilution method. The class given is functional. For orientation: Dilution methods test growth across graded concentrations, often in twofold steps.
A further data set concerns Streptococcus pneumoniae. Briefly: Antibacterial activity against Streptococcus pneumoniae ARC 2481 assessed as growth inhibition by broth microdilution method. The class given is functional.
Data set [2] can be described thus: fT>MIC in mouse neutropenic thigh infection model infected with methicillin-sensitive Staphylococcus aureus ARC 516. On the set-up: species or system Thigh muscle.
In data set [3] the test system is Staphylococcus aureus. Briefly: Antibacterial activity against methicillin-sensitive Staphylococcus aureus ARC 516 in mouse neutropenic thigh infection model assessed as inhibition of progression of bacterial infection at 100 to 200 mg/kg/day, ip administered once daily starting 2 hrs after infection measured 24 hrs after drug dosing. Type of data set: functional, organism-based.

Data set [4] in a line: In vivo clearance in Wistar rat at 5 to 10 mg/kg, iv administered as bolus dose. The class given is ADME, organism-based. On the set-up: dose 5-10 mg/kg, route intravenous.
Data set [5] is described as follows: Inhibition of Staphylococcus aureus TMK assessed as decrease in ATP production using dTDP and ADP as substrate after 3.5 hrs by luciferin/luciferase based luminescence analysis.
The test system of another data set is Streptococcus pyogenes. Kind of data set: Antibacterial activity against Streptococcus pyogenes ARC 2834 assessed as growth inhibition by broth microdilution method. The class given is functional.
The nature of data set [6]: Octanol-sodium phosphate buffer partition coefficient, log D of the compound at pH 7.4 by shake-flask method.
The test system of the next data set is Enterococcus faecalis. Kind of data set: Antibacterial activity against vancomycin-resistant Enterococcus faecalis ARC 1618 assessed as growth inhibition by broth microdilution method. Type of data set: functional.
Data set [7] in a line: Retention time of the compound by LC-MS method. The class given is physicochemical.
The next data set has as its system Enterococcus faecium. Briefly: Antibacterial activity against linezolid-resistant Enterococcus faecium ARC 1239 assessed as growth inhibition by broth microdilution method. The class given is functional.
Data set [8] relates to Staphylococcus epidermidis. Briefly: Antibacterial activity against Staphylococcus epidermidis ARC 323 assessed as growth inhibition by broth microdilution method. Type of data set: functional.
Data set [9] deals with Staphylococcus aureus. Kind of data set: Antibacterial activity against Staphylococcus aureus ARC 516 assessed as growth inhibition by broth microdilution method. The class given is functional.
The nature of data set [10]: Ratio of IC50 for human […] to IC50 for Staphylococcus aureus TMK.
Data set [11] concerns Staphylococcus aureus. Briefly: Antibacterial activity against methicillin-sensitive Staphylococcus aureus ARC 516 in mouse neutropenic thigh infection model assessed as reduction in number of colony-forming units at 400 mg/kg/day, ip administered bid every 12 hrs as equal divided dose starting 2 hrs after infection measured 24 hrs after drug dosing relative to control. The class given is functional. The following applies: route intraperitoneal.

The subject of data set [12] is Staphylococcus aureus. Briefly: Antibacterial activity against methicillin-resistant and quinolone-resistant Staphylococcus aureus ARC 517 assessed as growth inhibition by broth microdilution method. Type of data set: functional.
For another data set, the system named is Escherichia coli. Kind of data set: Antibacterial activity against Escherichia coli ARC 523 assessed as growth inhibition by broth microdilution method. The class given is functional.
Data set [13] can be described thus: Fraction unbound in human plasma at 10 uM after 5 hrs by rapid equilibrium dialysis method. The class given is ADME, cell-free.
For data set [14], the system named is Staphylococcus aureus. Kind of data set: Antibacterial activity against Staphylococcus aureus assessed as log cell killing at greater than and equals to 0.5x MIC measured after 4 hrs. Type of data set: functional.
Data set [15] deals with Staphylococcus aureus. Briefly: Antibacterial activity against Staphylococcus aureus assessed as bacterial killing. The class given is functional, organism-based.
In data set [16] the test system is Staphylococcus aureus. Briefly: Antibacterial activity against Staphylococcus aureus assessed as bacterial killing at 0.5 to 1x MIC measured after 24 hrs. Type of data set: functional, organism-based.
A short description of data set [17]: Cytotoxicity against human A549 cells. Type of data set: cell-based. The following applies: read-out: MIC.

Take `Cc1cn([C@H]2CCCN([C@@H](CC(C)C)c3ccc(C(=O)O)c(Oc4cccc(Cl)c4)c3F)C2)c(=O)[nH]c1=O`: the fraction unbound at 5 h, 10 µM turned out to be 0.005 in data set [1] and 0.007 in [13]. For the same molecule, the MIC is greater than 64 µg/mL in the data set on Pseudomonas aeruginosa; 2 µg/mL in the data set with Streptococcus pyogenes; 4 µg/mL in the data set with Enterococcus faecalis; 2 µg/mL in the data set with Enterococcus faecium; 4 µg/mL in data set [8]; 0.5 µg/mL with Staphylococcus aureus [9]. Further, the values for the MIC with Staphylococcus aureus [12] and in the data set on Escherichia coli were 0.5 µg/mL and greater than 64 µg/mL, respectively. Also, the MIC90 in the data set on Streptococcus pneumoniae is 0.13 µg/mL. In addition, in data set [2], the “fT>MIC” value was 27%. Further, the inhibition result in the data set on Staphylococcus aureus [3] is “Active”. Moreover, the clearance in data set [4] is 38 mL/min/kg. Further, the IC50 in [5] is 1 nM. The logD in [6] stood at 0.57. The molecule also gave a Retention_time in data set [7] of 2 min. For the same molecule, the Ratio IC50 in data set [10] was greater than 25000. In addition, the “fold change (FC)” value in the data set on Staphylococcus aureus [11] was 10.
On to `CC[C@H](c1ccc(C(=O)O)c(Oc2cccc(Cl)c2)c1)N1CCC[C@H](n2cc(C)c(=O)[nH]c2=O)C1`, for which, in data set [5], the IC50 worked out at 14 nM. Moreover, the LCK with Staphylococcus aureus [14] is given as greater than 3. For the same molecule, the Activity entry with Staphylococcus aureus [15] was “Dose-dependent effect”. Besides, the log distribution coefficient (logD) in data set [6] was 0.22. Moreover, the MIC with Staphylococcus aureus [9] and with Staphylococcus aureus [12] was 2 µg/mL each time. In addition, the outcome in the data set with Staphylococcus aureus [16] was inactive.
For `CC[C@@H](c1ccc(C(=O)O)c(Oc2cccc(Cl)c2)c1OC)N1CCC[C@H](n2cc(C)c(=O)[nH]c2=O)C1`, the fraction unbound at 5 h, 10 µM in [1] is 0.011; in [13] it was 0.11. Further, the MIC in the data set with Pseudomonas aeruginosa is greater than 64 µg/mL; in the data set on Enterococcus faecalis it was greater than 8 µg/mL; in the data set with Enterococcus faecium, 8 µg/mL; in [8], 4 µg/mL; in the data set with Staphylococcus aureus [9], 4 µg/mL; in the data set on Staphylococcus aureus [12] it was 2 µg/mL. The MIC in the data set with Escherichia coli is greater than 64 µg/mL. In addition, the MIC90 with Streptococcus pneumoniae stood at 2 µg/mL; with Streptococcus pyogenes, 4 µg/mL; with Staphylococcus aureus [9] it was 4 µg/mL; with Staphylococcus aureus [12], 4 µg/mL. The same molecule yielded a clearance in data set [4] of 73 mL/min/kg. For the same molecule, in data set [5], the IC50 came to 3 nM. In data set [6], this molecule yielded a logD of -0.02. In data set [7], this molecule came in with a Retention_time of 1.65 min. Moreover, the MCC in [17] was greater than 64 µg/mL. Moreover, the Ratio IC50 in data set [10] was greater than 25000.
For `Cc1cn([C@H]2CCCN([C@H](CC(C)(C)C)c3ccc(C(=O)O)c(Oc4cccc(Br)c4)c3)C2)c(=O)[nH]c1=O`, the figures for the fraction unbound at 5 h, 10 µM in data set [1] and in data set [13] were less than 0.003 and 0.032, respectively. The MIC was greater than 64 µg/mL in the data set on Pseudomonas aeruginosa; 1 µg/mL in the data set with Enterococcus faecalis; 0.25 µg/mL with Enterococcus faecium; 2 µg/mL in data set [8]; greater than 64 µg/mL in the data set with Escherichia coli. For the same molecule, the MIC90 came out at 0.03 µg/mL in the data set with Streptococcus pneumoniae, 0.5 µg/mL in the data set with Streptococcus pyogenes, 1 µg/mL with Staphylococcus aureus [9] and 1 µg/mL in the data set with Staphylococcus aureus [12]. Moreover, the clearance in data set [4] was found to be 42 mL/min/kg. Further, the IC50 in data set [5] was 0.8 nM. In addition, in data set [17], the MCC was greater than 64 µg/mL. Further, the Ratio IC50 in data set [10] is greater than 25000.
As to `Cc1cn([C@H]2CCCN([C@H](CC(C)C)c3ccc(C(=O)O)c(Oc4cccc(Cl)c4)c3F)C2)c(=O)[nH]c1=O`, the fraction unbound at 5 h, 10 µM is less than 0.01 in [1] and 0.013 in [13]. In addition, the MIC in the data set with Pseudomonas aeruginosa is greater than 64 µg/mL; in the data set with Enterococcus faecalis it was 8 µg/mL; in the data set with Enterococcus faecium it was 2 µg/mL; in [8], 2 µg/mL; in the data set with Staphylococcus aureus [9], 0.25 µg/mL; with Staphylococcus aureus [12] it was 0.5 µg/mL. In addition, in the data set on Escherichia coli, the MIC was greater than 64 µg/mL. Further, the MIC90 worked out at 0.13 µg/mL in the data set with Streptococcus pneumoniae, 2 µg/mL with Streptococcus pyogenes, 2 µg/mL in the data set with Staphylococcus aureus [9] and 2 µg/mL in the data set on Staphylococcus aureus [12]. The molecule further came in with a clearance in [4] of 84 mL/min/kg. Further, the IC50 in data set [5] amounted to 1 nM. In [6], this molecule had a logD of 0.92. The Ratio IC50 in [10] was greater than 25000.

In general, fraction unbound refers to the share of the substance not bound to proteins or other matrix. A higher fraction unbound goes with much free substance. As usually defined, the MIC is the smallest concentration in the dilution series that meets the test's criterion for growth inhibition. The MIC90 is the lowest concentration that inhibits either 90% of growth or 90% of the strains tested, depending on the study. Usually clearance stands for the volume of plasma or blood freed of the substance per unit of time. A low value points to a low capacity for elimination. Broadly, the IC50 is the concentration that inhibits the measured activity by half. For orientation: logD means lipophilicity at a set pH, counting ionised and neutral species. A high value points to a more lipophilic compound.
